Assay results: patent US20200237852A1, “Small Molecule Enhancers of Paneth Cell Function and Differentiation” (Massachusetts Institute of Technology, priority 2019, published 2020)

Assays:
[1] = tested on: ISC-enriched organoids in ENR+CD; assay: 384-well secondary screen in ENR+CD incl. early vs. full treatment, secreted LYZ (LYZ.NS, LYZ.S); format: cell-based, C57BL/6 mice; settings: ENR+CD, across all doses
Description: We again assessed treatment effect size with replicate SSMD (using a difference between well replicates and median assay value for all same-plate control wells—see Materials and Methods, High-throughput screening: 384-well secondary screen format and early vs. full treatment analysis) and hits were considered statistically validated by an SSMD greater than the false-positive-derived cutoffs (βα1=0.89 for 8 replicates with alpha=0.05; see Materials and Methods, High-throughput screening: 384-well secondary screen format and early vs. full treatment analysis) for both LYZ.NS and LYZ.S assays (FIG. 7A). Per this new cutoff, 10 dose-treatment combinations corresponding to 7 small molecules were chosen as hits, with every passing dose-treatment having a greater than 0 ATP effect size.
For 384-well plate high-throughput screening, ISC-enriched organoids were passaged and split to single cells with TyrpLE (Thermo Fisher Scientific) and cultured for 2-3 days in ENR+CVY prior to transfer to a “2.5-D” 384-well plate culture system. To prepare for “2.5D” plating, cell-laden Matrigel and media were homogenized via mechanical disruption and centrifuged at 300 g for 3 min at 4° C. Supernatant was removed and the pellet washed and spun in basal culture medium repeatedly until the cloudy Matrigel above the cell pellet was gone. On the final wash, pellet was resuspended in basal culture medium, the number of organoids counted, and the cell pellet was resuspended in ENR+CD medium at ˜7 clusters/μL. 384-well plates were first filled with 10 μL of 70% Matrigel (30% basal media) coating in each well using a Tecan Evo 150 Liquid Handling Deck, and allowed to gel at 37° C. for 5 minutes. Then 30 μL of cell-laden media was plated at the center of each well of 384-well plates with the liquid handler, and the plates were spun down at 50 g for 1 minute to embed organoids on the Matrigel surface. Compound libraries were pinned into prepped cell plates using 50 nL pins into 30 μL media/well. Cells were cultured at 37° C. with 5% CO2 for six days in ENR+CD medium supplemented with the tested compounds with a media change at three days. On day six, lysozyme secretion and cell viability were assessed using Lysozyme Assay Kit (EnzChek) and CellTiter-Glo 3D Cell Viability Assay (Promega), respectively, according to the manufacturers' protocols. Briefly, screen plates were washed 3× with FluoroBrite basal media (2 mM GlutaMAX and 10 mM HEPES in FluoroBrite DMEM (Thermo Fisher Scientific)) using a BioTek 406 plate washer with 10 min incubations followed by a 1 min centrifugation at 200 g to settle media between washes. After removal of the third wash, 30 μL of non-stimulated FluoroBrite basal media was added to each screen well using a Tecan Evo 150 Liquid Handling Deck from a non-stimulated treatment master plate, and plates were incubated for 30 min at 37° C. After 30 minutes, the top 15 μL of media from each well of the screen plate was transferred to a non-stimulated LYZ assay plate containing 15 μL of 20× DQ LYZ assay working solution using a Tecan Evo 150 Liquid Handling Deck. The non-stimulated LYZ assay plate was covered, shaken for 10 min, incubated for 50 min at 37° C., then fluorescence measured (shake 10 s; […]/518 nm) using a Tecan M1000 Plate Reader. After the media transfer to the non-stimulated LYZ assay plate, the remaining media was removed from the screen plate and 30 μL of Stimulated FluoroBrite basal media (supplemented with 10 μM CCh) was added to each screen well using a Tecan Evo 150 Liquid Handling Deck from a stimulated treatment master plate, and plates were incubated for 30 min at 37° C. After 30 minutes, the top 15 μL of media from each well of the screen plate was transferred to a stimulated LYZ assay plate containing 15 μL of 20× DQ LYZ assay working solution using a Tecan Evo 150 Liquid Handling Deck. […]

[2] = tested on: conventional organoid (ENR); assay: 384-well screen in conventional organoid (ENR), secreted LYZ (LYZ.NS, LYZ.S); format: cell-based, C57BL/6 mice; settings: 6-day ENR differentiation compared with ENR+CD
[3] = tested on: 6-day ENR+CD cells; assay: Long-term (48-hour) modulators of basal and CCh-induced LYZ secretion; format: cell-based, murine; settings: 48-hour treatment, CCh-induced secretion over 3 hours on day 6
Description: (§1) We next sought to profile potential long-term modulators of differentiated PC survival and antimicrobial secretion, as well as gauge the interaction between long-term modulators and short-term induced secretion (via CCh). To accomplish this, we employed a similar set up as in the short-term experiment, with the exception that upon plating day 4 ENR+CD cells we additionally supplemented in either MDP, LPS, TNF-α, or IFN-γ for the additional 2 days in culture and assayed all conditions for both basal and CCh-induced LYZ secretion over 3 hours on day 6 of differentiation (FIG. 3A). […] Additionally, we see that the long-term addition reduces CCh-induced secretory function relative to the untreated control for all agents (FIG. 3D).
(§2) Small intestinal crypts were isolated from C57BL/6 mice of both sexes, aged between three to six months in all experiments. Crypts were then cultured in a Matrigel culture system. Briefly, crypts were resuspended in basal culture medium (Advanced DMEM/F12 with 2 mM GlutaMAX and 10 mM HEPES; Thermo Fisher Scientific) at a 1:1 ratio with Corning™ Matrigel™ Membrane Matrix—GFR (Fisher Scientific) and plated at the center of each well of 24-well plates. Following Matrigel polymerization, 500 μL of small intestinal crypt culture medium (basal media plus 100× N2 supplement, 50×B27 supplement; Life Technologies, 500× N-acetyl-L-cysteine; Sigma-Aldrich) supplemented with growth factors EGF—E (50 ng/mL, Life Technologies), Noggin—N (100 ng/mL, PeproTech) and R-spondin 1—R (500 ng/mL, PeproTech) and small molecules CHIR99021—C (3 μM, LC Laboratories) and valproic acid—V (1 mM, Sigma-Aldrich) was added to each well. ROCK inhibitor Y-27632—Y (10 μM, R&D Systems) was added for the first 2 days of culture. Cells were cultured at 37° C. with 5% CO2, and cell culture medium was changed every other day. After 6 days of culture, crypt organoids were isolated from Matrigel by mechanical dissociation. To expand enriched ISCs (ENR+CV/Y) or Paneth Cells (ENR+CD), organoids were cultured in 24-well plates, suspended in 40 uL 3-D gels (50-50 GFR MATRIGEL®, Basal culture media), with 500 uL of crypt media supplemented with necessary growth factors and small molecules. ROCK inhibitor (Y) was added for the first two days of ISC culture following reconstitution from cryopreservation or trypLE passaging to single cells. Cell culture medium was changed every other day. After 4 days of culture in ENR+CV, cell clusters were differentiated to PCs under the ENR+CD condition for 96-well short and long-term screens. For 384-well differentiation screens, 4-day ENR+CV clusters were passaged to single cells using trypLE, replated and expanded another 3 days in 3-D ENR+CVY and then passaged directly into screens.
For 96-well plate high-throughput screening, 4-day differentiated (ENR+CD) cell clusters in 3D Matrigel were transferred to a “2.5-D” 96-well plate culture system. Briefly, cell culture gel and medium were homogenized via mechanical disruption and centrifuged at 300 g for 3 min at 4° C. […] On the last repeat, pellet was resuspended in basal culture medium, the number of cell clusters counted, and centrifuged at 300 g for 3 min at 4° C. […] At end time points (following 2 days in culture and 3 hours of stimulation), lysozyme secretion and cell viability were assessed using Lysozyme Assay Kit and CellTiter-Glo 3D Cell Viability Assay (Promega), respectively, according to the manufacturers' protocols. […]

[4] = tested on: 6-day ENR+CD cells; assay: Cell pellet ATP after long-term (48-hour) treatment; format: cell-based, murine; settings: low doses
Description: as §1
as §2, with “ROCK inhibitor (Y) was added for the first two days of ISC culture following reconstitution from cryopreservation or trypLE passaging to single cells. Cell culture medium was changed every other day. After 4 days of culture in ENR+CV, cell clusters were differentiated to PCs under the ENR+CD condition for 96-well short and long-term screens. For 384-well differentiation screens, 4-day ENR+CV clusters were passaged to single cells using trypLE, replated and expanded another 3 days in 3-D ENR+CVY and then passaged directly into screens.” left out
For 96-well plate high-throughput screening, 4-day differentiated (ENR+CD) cell clusters in 3D Matrigel were transferred to a “2.5-D” 96-well plate culture system. […] On the last repeat, pellet was resuspended in basal culture medium, the number of cell clusters counted, and centrifuged at 300 g for 3 min at 4° C. […] At end time points (following 2 days in culture and 3 hours of stimulation), lysozyme secretion and cell viability were assessed using Lysozyme Assay Kit and CellTiter-Glo 3D Cell Viability Assay (Promega), respectively, according to the manufacturers' protocols. […]

Question: `COc1ccc(C2CNC(=O)C2)cc1OC1CCCC1` (centres unmarked) [Rolipram] was tested. Which “ATP-normalized LYZ assays (LYZ.NS/ATP, LYZ.S/ATP), early versus full treatment” value [1] did it give?
Answer: The value was “do not see a trend or significant difference”.

Question: Which “mean fold change in LYZ.NS/ATP and LYZ.S/ATP (LYZ secretion per cell) in ENR” value [2] does the source give for `CCc1c(C(=O)C(N)=O)c2c(OCC(=O)O)cccc2n1Cc1ccccc1` [Varespladib] here?
Answer: The value was “minimal effects in the ENR-only system”.

Question: What does the source list for TNF-α?
Answer: effect size of reduction of CCh-induced secretory function relative to untreated control [3]: weak; SSMD effect size of increase in cell number (ATP) [4]: weak; change in cell number (ATP rel. to ENR+CD) [4]: apparent increases in cell number
